Assay results as given in patent US12492193B2, “Pyrazole derivatives for the treatment of cystic fibrosis” (Fondazione Istituto Italiano Di Tecnologia, priority 2017, dated 2025).

Columns and labels:
Type in all cases: cell-based
mutant CFTR = biological target: T1, mutant CFTR (Homo sapiens, UniProt P13569, DEL508-508); experiment: Fluorescence (HS-YFP) assay for CFTR activity, corrector assay; details: CFBE41o- and FRT cells with stable expression of mutant CFTR, 24 h compound treatment
T1 construct: expressed in transfected cells
Outline: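 Corrector activity: 24 h compound treatment of HS-YFP/mutant-CFTR CFBE41o- or FRT cells, followed by 30 min forskolin 20 μM + genistein 50 μM at 37° C. Iodide influx (100 mM final) was tracked as fluorescence quenching, with dF/dt extrapolated by exponential fitting; EC50 values derived.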

F508del-CFTR [1] = biological target: T2, F508del-CFTR (Homo sapiens, UniProt P13569, DEL508-508); experiment: Transepithelial electrical conductance (TEEC) in FRT cells expressing F508del-CFTR; parameters: expressed in transfected cells; host or cells: FRT cells; details: compounds tested at 5.0 μM, 24 hrs, table 2
Method: Transepithelial Electrical Conductance (TEEC)
FRT cells expressing F508del-CFTR were plated on HTS Transwell-24 well permeable supports (Code 3379, Corning Life Sciences) at a density of 200,000 cells/well. After six days, cells were incubated for 24 hrs with test correctors, vehicle, or VX-809. Compounds were dissolved in both basolateral (800 μL) and apical (300 μL) culture medium. After treatment, the culture medium was removed and replaced on both sides with a saline solution containing (in mM): 130 NaCl, 2.7 KCl, 1.5 KH2PO4, 1 CaCl2), 0.5 MgCl2, 10 glucose, 10 Na-Hepes (pH 7.4). The basolateral and apical side received 800 μL and […], respectively. The 24-well tray with cells was placed on a block heater (SBH 130D, Stuart) to keep the temperature at 37° C. during the entire experiment. After 10 min, the basal transepithelial electrical resistance (TEER) across each layer of FRT cells was measured with a STX100C electrode pair connected to an EVOM2 voltohmeter (World Precision Instruments). To stimulate F508del-CFTR, each well received (apical side) 50 μL of saline solution containing 60 μM forskolin and 150 μM genistein (final concentrations: 20 μM forskolin, 50 μM genistein). Forskolin was also pipetted in the basolateral medium to obtain the 20 μM concentration. After 10 min TEER was measured again in each well. To block F508del-CFTR function, the inhibitor PPQ-102 was used at the final concentration of 30 μM. To achieve the desired concentration, 75 μL of the apical solution in each well was replaced with an equal volume of saline solution containing 20 μM forskolin, 50 μM genistein, and 60 μM PPQ-102. After further 10 min, the transepithelial electrical resistance was measured. All values of TEER were converted to transepithelial electrical conductance (TEEC) using the formula TEEC=1/TEER. The parameter to indicate activity of F508del-CFTR in each well (ATEEC) was calculated from the difference in TEEC measured after maximal stimulation of F508del-CFTR with forskolin and genistein and after block with PPQ-102.
Corrector activities obtained on selected compounds tested at 5.0 μM (expressed as ΔTEEC values) are illustrated in table 2, wherein +: ΔTEEC<2000 μS; ++: 2000 μS<ΔTEEC<3000 μS; […]: ΔTEEC>3000 μS.

F508del-CFTR [2] = biological target: T2, F508del-CFTR; experiment: Short-circuit current recordings on human bronchial epithelial cells (F508del/F508del); parameters: Human bronchial epithelial (HBE) cells obtained from CF patients (F508del/F508del genotype); endogenous in cells; host or cells: primary human bronchial epithelial cells from CF patients, F508del/F508del; details: HBE cells from CF patients (F508del/F508del), 24 hrs treatment; table 3
Method: Short-Circuit Current Recordings on Human Bronchial Epithelial Cells
Human bronchial epithelial (HBE) cells obtained from CF patients (F508del/F508del genotype) were plated on Snapwell inserts (Code 3801, Corning Life Sciences) at a density of 500,000 cells per insert. Cells were cultured for two weeks in a differentiating medium whose compositions has been previously described (Scudieri et al., J Physiol 590:6141-6155, 2012). For the first week, the medium was kept on both apical and basolateral sides of inserts (submerged condition). For the second week, the apical medium was removed (air-liquid condition, ALC). To test the activity of correctors, cells were treated for 24 hrs with compounds dissolved in the basolateral medium. After treatment, Snapwell inserts carrying differentiated bronchial epithelia were mounted in a vertical chamber resembling an Ussing system with internal fluid circulation. Both apical and basolateral hemichambers were filled with 5 mL of a Krebs bicarbonate solution containing (in mM): 126 NaCl, 0.38 KH2PO4, 2.13 K2HPO4, 1 MgSO4, 1 CaCl2), 24 NaHCO3, and 10 glucose. Both sides were continuously bubbled with a gas mixture containing 5% CO2-95% air and the temperature of the solution was kept at 37° C. The transepithelial voltage was short-circuited with a voltage-clamp (DVC-1000, World Precision Instruments) connected to the apical and basolateral chambers via Ag/AgCl electrodes and agar bridges (1 M KCl in 1% agar). The offset between voltage electrodes and the fluid resistance were canceled before experiments. The short-circuit current was recorded with a PowerLab 4/25 (ADInstruments) analogical to digital converter connected to a Macintosh computer. […] The difference between the current measured with CPT-cAMP plus potentiator and the current remaining after CFTRinh-172 treatment (ΔICFTR) was taken as the parameter reflecting F508del-CFTR expression in the apical membrane.
Activities of selected compounds on HBE cells (expressed as ΔICFTR) are illustrated in table 3 wherein +: ΔICFTR<2.0 μA; ++: 2.0 μA<ΔICFTR<3.0 μA; +++: ΔICFTR>3.0 μA.

T1 sequence (P13569 with tags, fused parts or gaps DEL508-508): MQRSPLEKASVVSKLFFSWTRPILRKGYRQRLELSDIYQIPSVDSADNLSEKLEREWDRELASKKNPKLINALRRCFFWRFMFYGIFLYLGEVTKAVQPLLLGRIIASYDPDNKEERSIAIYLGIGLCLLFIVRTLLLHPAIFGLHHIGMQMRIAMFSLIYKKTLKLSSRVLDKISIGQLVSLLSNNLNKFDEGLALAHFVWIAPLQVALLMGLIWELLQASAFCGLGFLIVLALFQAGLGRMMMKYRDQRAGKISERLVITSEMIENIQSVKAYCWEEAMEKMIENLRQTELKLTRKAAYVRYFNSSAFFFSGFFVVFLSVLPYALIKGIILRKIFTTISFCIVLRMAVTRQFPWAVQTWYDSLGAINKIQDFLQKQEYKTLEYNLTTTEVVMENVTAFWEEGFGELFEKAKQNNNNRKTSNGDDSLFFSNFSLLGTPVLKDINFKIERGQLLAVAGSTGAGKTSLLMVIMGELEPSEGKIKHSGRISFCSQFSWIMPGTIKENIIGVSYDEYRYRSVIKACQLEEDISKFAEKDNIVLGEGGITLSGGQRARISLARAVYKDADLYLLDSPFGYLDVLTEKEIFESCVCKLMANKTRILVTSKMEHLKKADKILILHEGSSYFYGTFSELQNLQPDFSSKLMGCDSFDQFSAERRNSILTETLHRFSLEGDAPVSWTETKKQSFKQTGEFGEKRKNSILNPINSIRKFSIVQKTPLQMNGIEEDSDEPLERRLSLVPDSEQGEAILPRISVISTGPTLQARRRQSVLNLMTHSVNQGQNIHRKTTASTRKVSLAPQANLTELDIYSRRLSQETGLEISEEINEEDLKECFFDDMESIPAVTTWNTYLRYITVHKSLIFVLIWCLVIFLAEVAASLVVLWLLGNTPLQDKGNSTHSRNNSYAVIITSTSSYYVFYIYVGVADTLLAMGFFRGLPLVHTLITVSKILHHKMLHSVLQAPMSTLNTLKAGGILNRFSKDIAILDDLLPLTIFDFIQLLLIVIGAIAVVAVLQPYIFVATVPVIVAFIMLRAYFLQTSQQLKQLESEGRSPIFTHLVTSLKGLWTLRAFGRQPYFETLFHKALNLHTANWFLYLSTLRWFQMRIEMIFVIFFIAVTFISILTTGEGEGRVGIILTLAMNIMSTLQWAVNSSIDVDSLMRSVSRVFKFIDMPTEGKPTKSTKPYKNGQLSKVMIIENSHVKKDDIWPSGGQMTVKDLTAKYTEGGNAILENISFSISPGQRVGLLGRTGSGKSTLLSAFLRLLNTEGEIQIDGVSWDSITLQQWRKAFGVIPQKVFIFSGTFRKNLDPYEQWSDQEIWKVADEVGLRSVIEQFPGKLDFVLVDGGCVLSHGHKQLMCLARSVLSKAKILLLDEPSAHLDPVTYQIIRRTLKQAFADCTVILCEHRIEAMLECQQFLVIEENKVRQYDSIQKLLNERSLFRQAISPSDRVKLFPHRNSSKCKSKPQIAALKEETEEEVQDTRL
T2 sequence (P13569 with tags, fused parts or gaps DEL508-508): as above

SMILES | EC50 (mutant CFTR) [nM] | Corrector activity (ΔTEEC) (F508del-CFTR [1]) | activity on HBE cells (ΔICFTR) (F508del-CFTR [2])
Cc1nn(-c2cccc(C(=O)N(C)c3ccc4c(c3)OCO4)c2)c(C(=O)OC(C)(C)C)c1Cl [compound 089, Tert-butyl 2-[3-[1,3-benzodioxol-5-yl(methyl)carbamoyl]phenyl]-4-chloro-5-methyl-pyrazole-3-carboxylate] | < 1000 | + (ΔTEEC<2000 μS) | +++ (ΔICFTR>3.0 μA)
CCOC(=O)c1c(Cl)c(C)nn1-c1cccc(C(=O)N(C)c2ccc3c(c2)OCO3)c1 [compound 075, Ethyl 2-[3-[1,3-benzodioxol-5-yl(methyl)carbamoyl]phenyl]-4-chloro-5-methyl-pyrazole-3-carboxylate] | < 1000 | + (ΔTEEC<2000 μS) | + (ΔICFTR<2.0 μA)
CC(C)Cc1cc(C(F)(F)F)nn1-c1cccc(C(=O)N(C)c2ccc3c(c2)OCO3)c1 [compound 100, N-(1,3-Benzodioxol-5-yl)-3-[5-isobutyl-3-(trifluoromethyl)pyrazol-1-yl]-N-methyl-benzamide] | < 1000 | + (ΔTEEC<2000 μS) | + (ΔICFTR<2.0 μA)
Cc1c(Br)c(C(F)(F)F)nn1-c1cccc(C(=O)N(C)c2ccc3c(c2)OCO3)c1 [compound 098, N-(1,3-Benzodioxol-5-yl)-3-[4-bromo-5-methyl-3-(trifluoromethyl)pyrazol-1-yl]-N-methyl-benzamide] | < 1000 | ++ (2000 μS<ΔTEEC<3000 μS) | +++ (ΔICFTR>3.0 μA)
Cc1nc2cc(Cl)c(N(C)C(=O)c3cccc(-n4nc(C)c(Cl)c4C)c3)cc2o1 [compound 080, 3-(4-Chloro-3,5-dimethyl-pyrazol-1-yl)-N-(5-chloro-2-methyl-1,3-benzoxazol-6-yl)-N-methyl-benzamide] | < 1000 | ++ (2000 μS<ΔTEEC<3000 μS) | ++ (2.0 μA<ΔICFTR<3.0 μA)
Cc1c(Cl)c(C(F)(F)F)nn1-c1cccc(C(=O)N(C)c2ccc3c(c2)OCO3)c1 [compound 090, N-(1,3-Benzodioxol-5-yl)-3-[4-chloro-5-methyl-3-(trifluoromethyl)pyrazol-1-yl]-N-methyl-benzamide] | < 1000 | ++ (2000 μS<ΔTEEC<3000 μS) | +++ (ΔICFTR>3.0 μA)
Cc1nn(-c2cccc(C(=O)N(C)c3ccc4c(c3)OCO4)c2)c(C(N)=O)c1Cl [compound 084, 2-[3-[1,3-benzodioxol-5-yl(methyl)carbamoyl]phenyl]-4-chloro-5-methyl-pyrazole-3-carboxamide] | > 2000 | – | –
Cc1nn(-c2cccc(C(=O)N(C)c3ccc4ocnc4c3)c2)c(C)c1Cl [compound 029, N-(1,3-Benzoxazol-5-yl)-3-(4-chloro-3,5-dimethyl-pyrazol-1-yl)-N-methyl-benzamide] | > 2000 | – | –
CC(C)Cc1c(Cl)c(C(F)(F)F)nn1-c1cccc(C(=O)N(C)c2ccc3c(c2)OCO3)c1 [compound 101, N-(1,3-Benzodioxol-5-yl)-3-[4-chloro-5-isobutyl-3-(trifluoromethyl)pyrazol-1-yl]-N-methyl-benzamide] | < 1000 | – | –
Cc1nn(-c2cccc(C(=O)N(C)c3ccc4c(c3)OCO4)c2)c(C(=O)O)c1Cl [compound 083, 2-[3-[1,3-Benzodioxol-5-yl(methyl)carbamoyl]phenyl]-4-chloro-5-methyl-pyrazole-3-carboxylic acid] | > 2000 | – | –
CC(C)Cc1c(Cl)c(C(F)(F)F)nn1-c1cccc(C(=O)N(C)c2cc3c(cc2Cl)OCO3)c1 [compound 110, N-(6-Chloro-1,3-benzodioxol-5-yl)-3-[4-chloro-5-isobutyl-3-(trifluoromethyl)pyrazol-1-yl]-N-methyl-benzamide] | < 1000 | – | –
Cc1nn(-c2cccc(C(=O)Nc3ccc4c(c3)OCCO4)c2)c(C)c1Cl [Int-002, 3-(4-Chloro-3,5-dimethyl-pyrazol-1-yl)-N-(2,3-dihydro-1,4-benzodioxin-6-yl)benzamide] | > 2000 | – | –

Continued, values first:

EC50 (mutant CFTR) [nM] | Corrector activity (ΔTEEC) (F508del-CFTR [1]) | activity on HBE cells (ΔICFTR) (F508del-CFTR [2]) | SMILES
< 1000 | ++ (2000 μS<ΔTEEC<3000 μS) | +++ (ΔICFTR>3.0 μA) | CCOC(=O)c1ccc(OCc2c(Cl)c(C)nn2-c2cccc(C(=O)N(C)c3ccc4c(c3)OCO4)c2)cc1 [compound 141, Ethyl 4-[[2-[3-[1,3-benzodioxol-5-yl(methyl)carbamoyl]phenyl]-4-chloro-5-methyl-pyrazol-3-yl]methoxy]benzoate]
< 1000 | + (ΔTEEC<2000 μS) | + (ΔICFTR<2.0 μA) | CN(C(=O)c1cccc(-n2nc(C(F)(F)F)cc2-c2ccccc2)c1)c1ccc2c(c1)OCO2 [compound 125, N-(1,3-Benzodioxol-5-yl)-N-methyl-3-[5-phenyl-3-(trifluoromethyl)pyrazol-1-yl]benzamide]
< 1000 | – | ++ (2.0 μA<ΔICFTR<3.0 μA) | Cc1nn(-c2cccc(C(=O)N(C)c3ccc4c(c3)OCO4)c2)c(COc2ccc(C(=O)O)cc2)c1Cl [compound 144, 4-[[2-[3-[1,3-Benzodioxol-5-yl(methyl)carbamoyl]phenyl]-4-chloro-5-methyl-pyrazol-3-yl]methoxy]benzoic acid]
< 1000 | – | – | CN(C(=O)c1cccc(-n2nc(C(F)(F)F)cc2OCc2ccc(C(=O)O)cc2)c1)c1ccc2c(c1)OC(F)(F)O2 [compound 197, 4-[[2-[3-[(2,2-difluoro-1,3-benzodioxol-5-yl)-methyl-carbamoyl]phenyl]-5-(trifluoromethyl)pyrazol-3-yl]oxymethyl]benzoic acid]
< 1000 | – | – | Cc1c(Cl)c(C(F)(F)F)nn1-c1cccc(C(=O)N(C)c2cc3c(cc2C#N)OCO3)c1 [compound 163, 3-[4-chloro-5-methyl-3-(trifluoromethyl)pyrazol-1-yl]-N-(6-cyano-1,3-benzodioxol-5-yl)-N-methyl-benzamide]
< 1000 | – | – | CN(C(=O)c1cccc(-n2nc(C(F)(F)F)c(Cl)c2C2CC2)c1)c1ccc2c(c1)OCO2 [compound 111, N-(1,3-Benzodioxol-5-yl)-3-[4-chloro-5-cyclopropyl-3-(trifluoromethyl)pyrazol-1-yl]-N-methyl-benzamide]
1000 to 2000 | – | – | Cc1nn(-c2cccc(C(=O)N(C)c3ccc4c(c3)OCO4)c2)c(C(C)(C)O)c1Cl [compound 115, N-(1,3-Benzodioxol-5-yl)-3-[4-chloro-5-(1-hydroxy-1-methyl-ethyl)-3-methyl-pyrazol-1-yl]-N-methyl-benzamide]
